Experiment [1] has as its target T1, BSEP (Canis lupus familiaris, UniProt B8K1W2).
T1 sequence (B8K1W2 1-1325): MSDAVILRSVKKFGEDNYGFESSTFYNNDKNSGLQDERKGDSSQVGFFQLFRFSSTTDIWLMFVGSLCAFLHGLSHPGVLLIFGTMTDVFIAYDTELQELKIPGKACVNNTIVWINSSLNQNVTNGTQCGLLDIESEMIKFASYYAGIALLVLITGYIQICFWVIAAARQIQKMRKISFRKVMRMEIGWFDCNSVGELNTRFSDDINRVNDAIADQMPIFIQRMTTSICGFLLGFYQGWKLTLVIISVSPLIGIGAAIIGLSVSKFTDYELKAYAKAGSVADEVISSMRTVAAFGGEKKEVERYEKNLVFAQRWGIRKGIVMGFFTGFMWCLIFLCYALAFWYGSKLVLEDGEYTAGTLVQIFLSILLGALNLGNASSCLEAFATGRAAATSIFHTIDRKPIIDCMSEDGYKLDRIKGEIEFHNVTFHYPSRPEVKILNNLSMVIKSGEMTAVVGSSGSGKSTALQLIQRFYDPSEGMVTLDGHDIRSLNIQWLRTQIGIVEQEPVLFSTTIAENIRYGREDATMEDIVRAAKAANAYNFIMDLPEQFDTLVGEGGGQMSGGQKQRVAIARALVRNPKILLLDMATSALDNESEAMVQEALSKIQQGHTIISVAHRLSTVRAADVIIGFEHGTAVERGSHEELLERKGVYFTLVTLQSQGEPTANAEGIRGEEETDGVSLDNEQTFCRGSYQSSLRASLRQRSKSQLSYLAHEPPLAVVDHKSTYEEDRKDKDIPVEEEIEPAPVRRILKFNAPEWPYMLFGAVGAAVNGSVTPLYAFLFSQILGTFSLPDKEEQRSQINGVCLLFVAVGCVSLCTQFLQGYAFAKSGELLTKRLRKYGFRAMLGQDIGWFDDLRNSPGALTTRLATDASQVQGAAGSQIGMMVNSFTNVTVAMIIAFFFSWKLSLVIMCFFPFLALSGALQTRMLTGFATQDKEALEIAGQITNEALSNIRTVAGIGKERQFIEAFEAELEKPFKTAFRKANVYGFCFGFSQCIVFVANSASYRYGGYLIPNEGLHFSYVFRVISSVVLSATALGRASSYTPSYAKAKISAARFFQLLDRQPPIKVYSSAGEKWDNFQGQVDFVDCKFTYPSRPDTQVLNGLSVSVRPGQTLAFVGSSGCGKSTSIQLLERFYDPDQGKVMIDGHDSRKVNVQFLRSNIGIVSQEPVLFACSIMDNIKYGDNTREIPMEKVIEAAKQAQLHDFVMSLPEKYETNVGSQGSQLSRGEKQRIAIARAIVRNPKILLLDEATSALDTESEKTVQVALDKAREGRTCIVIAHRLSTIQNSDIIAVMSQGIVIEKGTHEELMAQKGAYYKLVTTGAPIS
Briefly: IC50 for inhibition of BSEP activity in dog hepatocytes. The class given is cell-based. As to the method: (§1) Kinetic parameters were calculated using standard Michaelis-Menten kinetics. IC50 values were determined using Prism software (La Jolla, Calif.) or median-effect equation. [Chou et al., Theoretical basis, experimental design, and computerized simulation of synergism and antagonism in Drug Combination Studies. Pharmacological Reviews 58, 621, 2006]

Experiment [2] addresses BSEP (Homo sapiens, UniProt O95342). Briefly: IC50 for inhibition of BSEP activity in human hepatocytes. It is filed as cell-based. The protocol:
as §1

The structures appear in SMILES notation. Bounds are passed on as bounds.

BSEP (Homo sapiens, UniProt O95342), sequence (O95342 whole entry): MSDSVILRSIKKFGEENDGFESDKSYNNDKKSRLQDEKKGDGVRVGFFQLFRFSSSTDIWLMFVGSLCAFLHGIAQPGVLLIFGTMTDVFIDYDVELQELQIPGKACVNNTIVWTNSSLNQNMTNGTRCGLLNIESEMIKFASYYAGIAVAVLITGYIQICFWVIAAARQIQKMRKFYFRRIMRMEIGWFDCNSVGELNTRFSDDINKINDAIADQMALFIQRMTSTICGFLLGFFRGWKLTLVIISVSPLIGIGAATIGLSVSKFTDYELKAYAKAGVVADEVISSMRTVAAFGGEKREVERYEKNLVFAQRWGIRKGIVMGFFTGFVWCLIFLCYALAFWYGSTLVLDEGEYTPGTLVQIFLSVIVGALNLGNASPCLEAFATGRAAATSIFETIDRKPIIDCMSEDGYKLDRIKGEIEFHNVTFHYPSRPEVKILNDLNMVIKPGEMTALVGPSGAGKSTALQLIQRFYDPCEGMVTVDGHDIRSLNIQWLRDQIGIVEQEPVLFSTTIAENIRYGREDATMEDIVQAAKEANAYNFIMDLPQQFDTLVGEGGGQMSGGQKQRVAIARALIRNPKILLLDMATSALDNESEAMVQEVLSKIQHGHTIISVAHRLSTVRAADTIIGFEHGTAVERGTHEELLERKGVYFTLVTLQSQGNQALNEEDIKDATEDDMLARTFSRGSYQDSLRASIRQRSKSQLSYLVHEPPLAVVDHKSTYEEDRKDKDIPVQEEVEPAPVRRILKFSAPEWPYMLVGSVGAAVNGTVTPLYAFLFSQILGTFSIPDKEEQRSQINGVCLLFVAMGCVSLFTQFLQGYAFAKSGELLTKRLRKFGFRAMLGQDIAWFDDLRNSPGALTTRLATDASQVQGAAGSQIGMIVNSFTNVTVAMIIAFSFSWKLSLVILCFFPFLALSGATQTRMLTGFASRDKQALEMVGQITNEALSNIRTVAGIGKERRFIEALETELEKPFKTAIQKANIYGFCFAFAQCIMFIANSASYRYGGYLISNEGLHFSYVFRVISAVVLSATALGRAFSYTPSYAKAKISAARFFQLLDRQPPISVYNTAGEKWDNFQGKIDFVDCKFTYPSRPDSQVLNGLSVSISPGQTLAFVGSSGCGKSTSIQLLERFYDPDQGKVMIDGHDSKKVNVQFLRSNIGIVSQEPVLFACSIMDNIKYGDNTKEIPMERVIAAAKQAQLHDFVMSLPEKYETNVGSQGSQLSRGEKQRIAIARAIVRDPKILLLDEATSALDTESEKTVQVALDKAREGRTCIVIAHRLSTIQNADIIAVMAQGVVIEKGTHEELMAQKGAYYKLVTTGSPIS

By IC50 is commonly meant the concentration at which inhibition is half-maximal. Turning to `CC(=O)N1CCN(c2ccc(OCC3COC(Cn4ccnc4)(c4ccc(Cl)cc4Cl)O3)cc2)CC1` (stereo not shown) [Ketoconazole, ketoconazole], the half-inhibitory concentration (IC50) in experiment [1] was in the range of 1 to 10 µM.

On to `CO[C@H]1/C=C/O[C@@]2(C)Oc3c(C)c(O)c4c(O)c(c(/C=N/N5CCN(C)CC5)c(O)c4c3C2=O)NC(=O)/C(C)=C\C=C\[C@H](C)[C@H](O)[C@@H](C)[C@@H](O)[C@@H](C)[C@H](OC(C)=O)[C@@H]1C` [Rifampicin], for which the IC50 in experiment [1] was greater than 10 µM.

As for `Cc1c(C)c2c(c(C)c1O)CCC(C)(COc1ccc(CC3SC(=O)NC3=O)cc1)O2` (stereo not shown) [Troglitazone, troglitazone], the IC50 in experiment [1] and in experiment [2] was 1 to 10 µM throughout.

The values are drawn from patent US10481149B2.
